Experimental data from publication PMC4074815, “An Impermeant Ganetespib Analog Inhibits Extracellular Hsp90-Mediated Cancer Cell Migration that Involves Lysyl Oxidase 2-like Protein” (Cancers, 2014).

Molecular target: T1, Hsp90 alpha (Homo sapiens, UniProt P07900)
T1 construct: gene HSP90AA1; Hsp90alpha recombinant enzyme (BPS Bioscience Hsp90α assay kit, Cat #50294)
Assay: fluorescence polarization competition with FITC-labeled geldanamycin
Format: binding

SMILES: CC(C)c1cc(-c2nnc(O)n2-c2ccc3c(ccn3CCNC(=O)CCCC[C@@H]3SC[C@@H]4NC(=O)N[C@@H]43)c2)c(O)cc1O [STA-12-7191]
- IC50: 0.062 µM
